Reference: patent US10030016B2 (Sunesis Pharmaceuticals, Inc., priority 2009, dated 2018)
Like-named read-outs stand apart in the source and are kept apart here.

Legend:
[1] = molecular target: PDK1 (Homo sapiens (Human), UniProt O15530); assay: PDK1 kinase assay (coupled PDK1/AKT/FAM-crosstide assay, IMAP fluorescence polarization); type: biochemical
Summary of the method: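 GST-tagged human PDK1 (aa 51-359, 0.75 nM) from insect cells activated unphosphorylated GST-AKT2 (aa 140-467–PIFtide fusion, 10 nM), which phosphorylated 100 nM FAM-crosstide; 40 μM ATP, pH 7.2 Tris/MgCl2, 30 min at 25° C. IMAP fluorescence polarization read-out; ΔmP versus compound concentration fitted with a 4-parameter curve.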

[2] = system: phospho-akt (Thr308) in PC-3 cells; assay: Inhibition of phospho-akt (Thr308) in PC-3 cells, MSD phospho-akt 308 ELISA kit; type: cell-based; conditions: 2 hours, no serum, read-out: EC50
Summary of the method: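 Read-out is MSD electrochemiluminescence of Akt phosphorylated at Thr308 in lysates of PC-3 cells treated 2 h with compound in serum-free medium. Wortmannin at 5 μM defined the low control and DMSO the high control.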

[3] = Homo sapiens, inhibition of P308 Akt in PC-3 cells using MSD
[4] = inhibition of phospo-PDK1 in vitro

PDK1, sequence (O15530 51-359): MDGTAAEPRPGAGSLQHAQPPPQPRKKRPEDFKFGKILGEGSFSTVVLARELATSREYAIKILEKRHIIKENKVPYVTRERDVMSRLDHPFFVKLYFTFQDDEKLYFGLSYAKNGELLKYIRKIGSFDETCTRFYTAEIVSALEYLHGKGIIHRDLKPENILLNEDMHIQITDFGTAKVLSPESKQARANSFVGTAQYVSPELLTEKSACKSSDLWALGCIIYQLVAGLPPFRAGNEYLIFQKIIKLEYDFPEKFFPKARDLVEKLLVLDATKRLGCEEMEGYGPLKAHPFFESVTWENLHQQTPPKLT

IC50 ([1]; inhibition of PDK1 in vitro) [nM] | EC50 [2, 3] [nM] | Compound | also measured
< 100 | > 10000 | C[C@H](NC(=O)c1cc(C#N)cnc1N[C@H](CC(N)=O)c1ccc(-c2c[nH]c3ncnc(N)c23)cc1)c1ccc(F)cc1 [Example 46, 2-((R)-3-amino-1-(4-(4-amino-7H-pyrrolo[2,3-d]pyrimidin-5-yl)phenyl)-3-oxopropylamino)-5-cyano-N—((S)-1-(4-fluorophenyl)ethyl)nicotinamide] | –
< 100 | < 1000 | C[C@H](NC(=O)c1cc(C#N)cnc1NCc1ccc(-c2cnc(N)c(C(=O)NCCN3CCN(C)CC3)n2)cc1)c1ccc(F)cc1 [Example 213, (S)-3-amino-6-(4-((5-cyano-3-(1-(4-fluorophenyl)ethylcarbamoyl)pyridin-2-ylamino)methyl)phenyl)-N-(2-(4-methylpiperazin-1-yl)ethyl)pyrazine-2-carboxamide] | –
< 100 | < 1000 | N#Cc1cnc(NCc2ccc(-c3cnc4[nH]ncc4c3)cc2)c(C(=O)NCc2ccc(F)cc2)c1 [Example 397, 5-Cyano-N-(4-fluoro-benzyl)-2-[4-(1H-pyrazolo[3,4-b]pyridin-5-yl)-benzylamino]-nicotinamide] | –
< 100 | < 1000 | CC(C)(N)CCc1nc(-c2ccc(CNc3ncc(C(F)(F)F)cc3C(=O)Nc3ccc(F)cc3)cc2)cnc1N [Example 83, 2-{4-[5-Amino-6-(3-amino-3-methyl-butyl)-pyrazin-2-yl]-benzylamino}-N-(4-fluoro-phenyl)-5-trifluoro-methyl-nicotinamide] | –

The remaining lines, values behind:

Compound | IC50 ([1]; inhibition of PDK1 in vitro) [nM] | EC50 [2, 3] [nM] | also measured
O=C(NCc1ccc(F)c(F)c1)c1cc(C(F)(F)F)cnc1NCc1ccc(-c2cnc(NCCCO)cn2)cc1 [Example 231, N-(3,4-Difluoro-benzyl)-2-{4-[5-(3-hydroxy-propylamino)-pyrazin-2-yl]-benzylamino}-5-trifluoromethyl-nicotinamide] | 100 to 1000 | – | EC50 ([2]; Homo sapiens, PC-3, 2 h, inhibition of P308 Akt in PC-3 cells using MSD): 1000 to 10000 nM
O=C(NCc1ccc(F)c(F)c1)c1cccnc1NCc1ccc(-c2cnc3[nH]ccc3c2)nc1 [Example 328] | < 100 | > 10000 | –
C[C@H](NC(=O)c1cccnc1NCc1ccc(-c2ccc3ncnc(N4CC(O)C4)c3c2)s1)c1ccc(F)c(F)c1 [Example 4.34] | – | – | IC50 [1, 4]: < 100 nM; EC50 ([2]; Homo sapiens, inhibition of P308 Akt in PC-3 cells, MSD): 1000 to 10000 nM
C[C@H](NC(=O)c1cccnc1NCc1cccc(-c2c[nH]c3ncnc(N)c23)c1)c1ccc(F)cc1 [Example 2.29, (S)-2-(3-(4-amino-7H-pyrrolo[2,3-d]pyrimidin-5-yl)benzylamino)-N-(1-(4-fluorophenyl)ethyl) nicotinamide] | – | – | IC50 [1, 4]: < 100 nM; EC50 ([2]; inhibition of P308 Akt in PC-3 cells, MSD): 1000 to 10000 nM
C[C@H](NC(=O)c1nc(C#N)cnc1N[C@H](C)c1ccc(-c2cnc3[nH]nc(N)c3c2)cc1)c1ccc(F)c(F)c1 [Example 42, 3-((R)-1-(4-(3-amino-1H-pyrazolo[3,4-b]pyridin-5-yl)phenyl)ethylamino)-6-cyano-N—((S)-1-(3,4-difluorophenyl)ethyl)pyrazine-2-carboxamide] | < 100 | < 1000 | –
Cn1c(-c2ccc(CNc3ncc(C(F)(F)F)cc3C(=O)Nc3ccc(F)cc3)cc2)cc2c(N)ncnc21 [Example 337, 2-(4-(4-amino-7-methyl-7H-pyrrolo[2,3-d]pyrimidin-6-yl)-benzylamino)-N-(4-fluorophenyl)-5-(trifluoromethyl)nicotinamide] | < 100 | 1000 to 10000 | –
CC(Nc1ncc(C#N)nc1C(=O)N[C@@H](C)c1ccc(F)c(F)c1)c1ccc(-c2cnc3[nH]nc(N)c3c2)cc1 (stereo in doubt) [Example 350, 3-((R)-1-(4-(3-amino-1H-pyrazolo[3,4-b]pyridin-5-yl)phenyl)ethylamino)-6-cyano-N-((S)-1-(3,4-difluorophenyl)ethyl) pyrazine-2-carboxamide] | > 5000 | > 10000 | –
